Measurements as given in patent US8759339B2, “Pyrrolo[2,1-c][1,4]naphthodiazepine linked piperazine compounds and a process for the preparation thereof” (Council of Scientific & Industrial Research, priority 2011, dated 2014).
Read-outs that look alike come from different tables or passages of the source.

Assays:
calf thymus DNA (CT-DNA) = assay: Thermal denaturation studies with duplex-form calf thymus DNA; assay type: binding; conditions: [PND]/[DNA] molar ratio 1:5, CT-DNA 100 μM, ligand 20 μM, aqueous sodium phosphate buffer pH 7; for ΔTm after incubation at 37° C. for 0 hr: 0 hr at 37° C.; for ΔTm after incubation at 37° C. for 18 hrs: 18 hrs at 37° C.
Description: Compounds have been subjected to thermal denaturation studies with duplex-form calf thymus DNA (CT-DNA) using an modification of a reported procedure (Newman, M. S. Carcinog-compr. Surv. 1976, 1, 203; (b) Hecht, S. S.; Loy, M.; Hoffman, Carcinog-compr. Surv. 1976, 1, 325). Working solutions in aqueous buffer (10 mM NaH2PO4/Na2HPO4, 1 mM Na2EDTA, pH 7.00+0.01) containing CT-DNA (100 μm in phosphate) and the PND (pyrrolo naphtha diazepine) (20 μm) have been prepared by addition of concentrated PND (pyrrolo naphtha diazepine) solutions in DMSO to obtain a fixed [PND]/[DNA] molar ratio of 1:5. The DNA-PND (pyrrolo naphtha diazepine) solutions have been incubated at 37° C. for 0 and 18 h prior to analysis. Samples have been monitored at 260 nm using a Beckman DU-800 spectrophotometer fitted with high performance temperature controller, and heated at 1° C. min in the 40-110° C. range. DNA helix→coil transition temperatures (Tm) have been obtained from the maxima in the d(A260)/dT derivative plots. Drug-induced alterations in DNA melting behavior are given by: ΔTm=Tm(DNA+PND)−Tm(DNA alone), where the Tm value for the PND-free CT-DNA is 69.1±0.01.
The DNA binding activity for these novel substituted piperazine linked pyrrolo naphtho diazepine hybrids has been examined by thermal denaturation studies using calf thymus (CT) DNA. […] The data for some of the compounds are included in Table 1 for comparison.

[1] = test system: A549 lung cancer cell line; assay: In vitro anticancer activity, MTT assay; assay type: cell-based, human; conditions: for in-vitro cytotoxicity in lung cancer cell line (A549): result in words
Description: (§1) In vitro biological activity studies were carried out at the pharmacology division, IICT, Hyderabad. The compounds were evaluated for in vitro anticancer activity against eight tumour cell lines derived from […] cancer types (breast, lung, liver, skeletal, kidney, prostrate, small intestine) as shown in Table 2. For each compound, dose response curves for each cell line were measured at a minimum of five concentrations at 10 fold dilutions. A protocol of 48 h continuous drug exposure was used and a MTT assay was used to estimate cell viability or growth. The concentration causing 50% inhibition (IC50) compared with the control was calculated. Some of the compounds have been evaluated for their in vitro cytotoxicity in eight cell lines from seven human cancer types. The results are expressed as IC50 determined relative to that of untreated control cells (Table-2).

[2] = test system: HEPG2 liver cancer cell line; assay: In vitro anticancer activity, MTT assay; assay type: cell-based, human; conditions: for in-vitro cytotoxicity in liver cancer cell line (HEPG2): result in words
Description: as §1

[3] = test system: MCF7 breast cancer cell line; assay: In vitro anticancer activity, MTT assay; assay type: cell-based, human; conditions: for IC50: breast cancer cell line, MTT, 48 h continuous drug exposure; for in-vitro cytotoxicity in breast cancer cell line (MCF-7): result in words
Description: as §1

[4] = test system: NCIH460 large cell lung cancer cell line; assay: In vitro anticancer activity, MTT assay; assay type: cell-based, human; conditions: for IC50: large cell lung cancer cell line, MTT, 48 h continuous drug exposure; for in-vitro cytotoxicity in large cell lung cancer cell line (NCIH460): result in words
Description: as §1

[5] = test system: PC-3 prostrate cancer cell line; assay: In vitro anticancer activity, MTT assay; assay type: cell-based, human; conditions: for IC50: prostrate cancer cell line, MTT, 48 h continuous drug exposure; for in-vitro cytotoxicity in prostrate cancer cell line (PC-3): result in words
Description: as §1

[6] = In vitro anticancer activity, MTT assay; assay type: cell-based; conditions: kidney cancer cell line, MTT, 48 h continuous drug exposure
Description: as §1

[7] = test system: COS-1 kidney cancer cell line; assay: In vitro anticancer activity, MTT assay; assay type: cell-based; conditions: for in-vitro cytotoxicity in kidney cancer cell line (COS-1): result in words
Description: as §1

[8] = test system: IEC-6 small intestine cell line; assay: In vitro anticancer activity, MTT assay; assay type: cell-based; conditions: for in-vitro cytotoxicity in small intestine cancer cell line (IEC-6): result in words
Description: as §1

[9] = test system: L-6 skeletal cancer cell line; assay: In vitro anticancer activity, MTT assay; assay type: cell-based; conditions: result in words
Description: as §1

L-6 = assay: In vitro anticancer activity, MTT assay; assay type: cell-based; conditions: skeletal cancer cell line; MTT, 48 h continuous drug exposure
Description: as §1

[10] = lung cancer cell line, MTT, 48 h continuous drug exposure, read-out: IC50 A549
[11] = liver cancer cell line, MTT, 48 h continuous drug exposure, read-out: IC50 HEPG2
[12] = small intestine cell line, MTT, 48 h continuous drug exposure, read-out: IC50 IEC-6

| Compound | ΔTm after incubation at 37° C. for 0 hr (calf thymus DNA (CT-DNA)) [°C] | ΔTm after incubation at 37° C. for 18 hrs (calf thymus DNA (CT-DNA)) [°C] | IC50 [1, 10] [µM] | in-vitro cytotoxicity in lung cancer cell line (A549) [1] | IC50 [2, 11] [µM] | in-vitro cytotoxicity in liver cancer cell line (HEPG2) [2] | IC50 [3] [µM] | in-vitro cytotoxicity in breast cancer cell line (MCF-7) [3] | IC50 [4] [µM] | in-vitro cytotoxicity in large cell lung cancer cell line (NCIH460) [4] | IC50 [5] [µM] | in-vitro cytotoxicity in prostrate cancer cell line (PC-3) [5] | IC50 ([6]; read-out: IC50 COS-1) [µM] | in-vitro cytotoxicity in kidney cancer cell line (COS-1) [7] | in-vitro cytotoxicity in small intestine cancer cell line (IEC-6) [8] | IC50 [8, 12] [µM] | in-vitro cytotoxicity in skeletal cancer cell line (L-6) [9] | IC50 (L-6) [µM] | further results |
| --- | --- | --- | --- | --- | --- | --- | --- | --- | --- | --- | --- | --- | --- | --- | --- | --- | --- | --- | --- |
| COc1cc2cc3c(cc2cc1OCCN1CCN(c2ncccn2)CC1)N=C[C@@H]1CCCN1C3=O [13a, 8-Methoxy-9-(2-[4-(2-pyrimidinyl)piperazino]ethoxy)-(13aS)-1,2,3,13a-tetrahydro-5H-pyrrolo[2,1-c][1,4]naphthodiazepin-5-one] | 5.0 | 6.5 | 0.86 | exhibiting in-vitro cytotoxicity | 0.04 | exhibiting in-vitro cytotoxicity | 0.04 | exhibiting in-vitro cytotoxicity | 0.26 | exhibiting in-vitro cytotoxicity | 0.08 | exhibiting in-vitro cytotoxicity | 1.87 | exhibiting in-vitro cytotoxicity | exhibiting in-vitro cytotoxicity | 0.02 | exhibiting in-vitro cytotoxicity | 0.61 |  |
| COc1cc2cc3c(cc2cc1OCCN1CCN(c2ccccc2)CC1)C(=O)N1CCC[C@H]1C=N3 [19a, 9-Methoxy-8-[2-(4-phenylpiperazino)ethoxy]-(3aS)-1,2,3,13a-tetrahydro-5H-pyrrolo[2,1-c][1,4]naphthodiazepin-5-one] | 6.5 | 7.3 |  | exhibiting in-vitro cytotoxicity |  | exhibiting in-vitro cytotoxicity |  | exhibiting in-vitro cytotoxicity |  | exhibiting in-vitro cytotoxicity |  | exhibiting in-vitro cytotoxicity |  | exhibiting in-vitro cytotoxicity | exhibiting in-vitro cytotoxicity |  | exhibiting in-vitro cytotoxicity | 0.26 | IC50 ([1]; Homo sapiens, A549, lung cancer cell line, MTT, 48 h continuous drug exposure, read-out: IC50 A549): 9.9 µM; IC50 ([1]; Homo sapiens, A549, range over the listed compounds, exposure period of at least 48 hrs, read-out: IC50 against lung cancer cell lines): 0.02 to 11.9 µM; IC50 ([2]; Homo sapiens, HepG2, liver cancer cell line, MTT, 48 h continuous drug exposure, read-out: IC50 HEPG2): 0.04 µM; IC50 ([2]; Homo sapiens, HepG2, range over the listed compounds, exposure period of at least 48 hrs, read-out: IC50 against liver cancer cell lines): 0.02 to 7.32 µM; IC50 ([3]; Homo sapiens, MCF7): 0.18 µM; IC50 ([4]; Homo sapiens, NCI-H460): 0.006 µM; IC50 ([5]; Homo sapiens): 0.3 µM; IC50 ([6]; COS-1): 0.8 µM; IC50 ([7]; COS-1, range over the listed compounds, exposure period of at least 48 hrs, read-out: IC50 against kidney cancer cell lines): 0.8 to 4.32 µM; IC50 ([8]; IEC-6, range over the listed compounds, exposure period of at least 48 hrs, read-out: IC50 against small intestine cancer cell lines): 0.01 to 5.84 µM; IC50 ([8]; IEC-6, small intestine cell line, MTT, 48 h continuous drug exposure, read-out: IC50 IEC-6): 0.01 µM |
| COc1cc2cc3c(cc2cc1OCCN1CCN(c2ccccc2)CC1)N=C[C@@H]1CCCN1C3=O [8a, 8-Methoxy-9-[2-(4-phenylpiperazino)ethoxy]-(13aS)-1,2,3,13a-tetrahydro-5H-pyrrolo[2,1-c][1,4]naphthodiazepin-5-one] | 5.1 | 6.9 | 7.42 | exhibiting in-vitro cytotoxicity | 0.47 | exhibiting in-vitro cytotoxicity | 1.5 | exhibiting in-vitro cytotoxicity | 0.43 | exhibiting in-vitro cytotoxicity | 1.6 | exhibiting in-vitro cytotoxicity | 6.39 | exhibiting in-vitro cytotoxicity | exhibiting in-vitro cytotoxicity | 0.14 | exhibiting in-vitro cytotoxicity | 1.01 |  |
| 8-Methoxy-9-(2-chloroethoxy)-(13aS)-1,2,3,13a-tetrahydro-5H-pyrrolo[2,1-c][1,4]naphthodiazepine-5-one [1a] | 6.2 | 7.6 | 0.02 | exhibiting in-vitro cytotoxicity | 0.52 | exhibiting in-vitro cytotoxicity | 0.05 | exhibiting in-vitro cytotoxicity | 0.3 | exhibiting in-vitro cytotoxicity | 0.39 | exhibiting in-vitro cytotoxicity | 3.06 | exhibiting in-vitro cytotoxicity | exhibiting in-vitro cytotoxicity | 0.02 | exhibiting in-vitro cytotoxicity | 1.08 |  |
| COc1cc2cc3c(cc2cc1OCCN1CCN(c2ccccn2)CC1)N=C[C@@H]1CCCN1C3=O [12a, 8-Methoxy-9-(2-[4-(2-pyridyl)piperazino]ethoxy)-(13aS)-1,2,3,13a-tetrahydro-5H-pyrrolo[2,1-c][1,4]naphthodiazepin-5-one] | 5.8 | 7.1 | 0.32 | exhibiting in-vitro cytotoxicity | 0.22 | exhibiting in-vitro cytotoxicity | 0.01 | exhibiting in-vitro cytotoxicity | 0.24 | exhibiting in-vitro cytotoxicity | 0.1 | exhibiting in-vitro cytotoxicity | 4.32 | exhibiting in-vitro cytotoxicity | exhibiting in-vitro cytotoxicity | 0.16 | exhibiting in-vitro cytotoxicity | 0.86 |  |
| 9-Methoxy-8-(2-chloroethoxy)-(13aS)-1,2,3,13a-tetrahydro-5H-pyrrolo[2,1-c][1,4]naphthodiazepine-5-one [2a] | 7.1 | 9.5 | 0.11 | exhibiting in-vitro cytotoxicity | 0.02 | exhibiting in-vitro cytotoxicity | 0.002 | exhibiting in-vitro cytotoxicity | 0.02 | exhibiting in-vitro cytotoxicity | 0.02 | exhibiting in-vitro cytotoxicity | 0.91 | exhibiting in-vitro cytotoxicity | exhibiting in-vitro cytotoxicity | 0.01 | exhibiting in-vitro cytotoxicity | 0.002 |  |
